Counter-ions that a name gives are not always drawn.
Assays:
[1] = test system: Chronic lymphocytic leukemia cells (CLL); assay: Viable CLL cells after 48 hours exposure, dye exclusion and flow cytometric analysis; format: cell-based, human
Experimental: (§1) After 48 hours exposure, the number of viable cells was determined by dye exclusion and flow cytometric analysis.

[2] = test system: control normal lymphocytes (PBL); assay: Viable normal lymphocytes after 48 hours exposure, dye exclusion and flow cytometric analysis; format: cell-based, human; details: 10 μM
Experimental: as §1

[3] = test system: 60 human tumor cell lines; assay: cells; format: cell-based
From the text: The operation of this screen utilizes 60 different human tumor cell lines, representing leukemia, melanoma, and cancers of the lung, colon, brain, ovary, breast, prostate, and kidney. The aim is to prioritize for further evaluation, synthetic compounds or natural product samples showing selective growth inhibition or cell killing of particular tumor cell lines. This screen is unique in that the complexity of a 60-cell line dose response produced by a given compound results in a biological response pattern which can be utilized in pattern recognition algorithms. Using these algorithms, it is possible to assign a putative mechanism of action to a test compound, or to determine that the response pattern is unique and not similar to that of any of the standard prototype compounds included in the NCI database (see DTP Overview tab). In addition, following characterization of various cellular molecular targets in the 60 cell lines, it may be possible to select compounds most likely to interact with a specific molecular target.
(§2) The human tumor cell lines of the cancer screening panel are grown in RPMI 1640 medium containing 5% fetal bovine serum and 2 mM L-glutamine. For a typical screening experiment, cells are inoculated into 96 well microtiter plates in 100 μL at plating densities ranging from 5,000 to 40,000 cells/well depending on the doubling time of individual cell lines. After cell inoculation, the microtiter plates are incubated at 37° C., 5% CO2, 95% air and 100% relative humidity for 24 h prior to addition of experimental drugs. After 24 h, two plates of each cell line are fixed iin situ with TCA, to represent a measurement of the cell population for each cell line at the time of drug addition (Tz).
Experimental drugs are solubilized in dimethyl sulfoxide at 400-fold the desired final maximum test concentration and stored frozen prior to use. […]
Cells are fixed in situ by the gentle addition of 50 μl of cold 50% (w/v) TCA (final concentration, 10% TCA) and incubated for 60 minutes at 4° C. […] Bound stainis subsequently solubilized with 10 mM trizma base, and the absorbance is read on an automated plate reader at a wavelength of 515 nm. […] Using the seven absorbance measurements [time zero, (Tz), control growth, (C), and test growth in the presence of drug at the five concentration levels ( ? )], tile percentage growth is calculated at each of the drug concentrations levels. Percentage growth inhibition is calculated as: [(Ti−Tz)/(C−Tz)]×100 for concentrations for which Ti>/=Tz [(Ti−Tz)/Tz]×100 for concentrations for which Ti<Tz
Three dose-response parameters are calculated for each experimental agent. […]

[4] = in vivo; cited from earlier work
[5] = test system: CAK-1; assay: NCI In Vitro Cell Line Screening; format: cell-based; details: Homo sapiens; CAK-1, Renal Cell Carcinoma
Experimental: as §2
(§3) Experimental drugs are solubilized in dimethyl sulfoxide at 400-fold the desired final maximum test concentration and stored frozen prior to use. At the time of drug addition, an aliquot of frozen concentrate is thawed and diluted to twice the desired final maximum test concentration with complete medium containing 50 μg/ml gentamicin. Additional four, 10-fold or ½ log serial dilutions are made to provide a total of five drug concentrations plus control. Aliquots of 100 μl of these different drug dilutions are added to the appropriate microtiter wells already containing 100 μl of medium, resulting in the required final drug concentrations. Following drug addition, the plates are incubated for an additional 48 h at 37° C., 5% CO2, 95% air, and 100% relative humidity. For adherent cells, the assay is terminated by the addition of cold TCA.
(§4) Cells are fixed in situ by the gentle addition of 50 μl of cold 50% (w/v) TCA (final concentration, 10% TCA) and incubated for 60 minutes at 4° C. The supernatant is discarded, and the plates are washed five times with tap water and air-dried. Sulforhodamine B (SRB) solution (100 μl) at 0.4% (w/v) in 1% acetic acid is added to each well, and plates are incubated for 10 minutes at room temperature. After staining, unbound dye is removed by washing five times with 1% acetic acid and the plates are air dried. Bound stainis subsequently solubilized with 10 mM trizma base, and the absorbance is read on an automated plate reader at a wavelength of 515 nm. For suspension cells, the methodology is the same except that the assay is terminated by fixing settled cells at the bottom of the wells by gently adding 50 μl of 80% TCA (final concentration, 16% TCA). Using the seven absorbance measurements [time zero, (Tz), control growth, (C), and test growth in the presence of drug at the five concentration levels ( ? )], tile percentage growth is calculated at each of the drug concentrations levels. Percentage growth inhibition is calculated as: [(Ti−Tz)/(C−Tz)]×100 for concentrations for which Ti>/=Tz [(Ti−Tz)/Tz]×100 for concentrations for which Ti<Tz
(§5) Three dose-response parameters are calculated for each experimental agent. Growth inhibition of 50% (GI50) is calculated from [(Ti−Tz)/(C−Tz)]×100=50, which is the drug concentration resulting in a 50% reduction in the net protein increase (as measured by SRB staining) in control cells during the drug incubation. The drug concentration resulting in total growth inhibition (TGI) is calculated from Ti=Tz. The LC50 (concentration of drug resulting in a 50% reduction in the measured protein at the end of the drug treatment as compared to that at the beginning) indicating a net loss of cells following treatment is calculated from [(Ti−Tz)/Tz]×100=−50. Values are calculated for each of these three parameters if the level of activity is reached; however, if the effect is not reached or is exceeded, the value for that parameter is expressed as greater or less than the maximum or minimum concentration tested.

[6] = test system: SK-MEL-5; assay: NCI In Vitro Cell Line Screening; format: cell-based; details: Homo sapiens; SK-MEL-5, Melanoma
Experimental: as §2, §3, §4, §5

[7] = test system: RXF 393; assay: NCI In Vitro Cell Line Screening; format: cell-based; details: Homo sapiens; RXF 393, Renal Cell Carcinoma
Experimental: as §2, §3, §4, §5

[8] = test system: NCI-H23; assay: NCI In Vitro Cell Line Screening; format: cell-based; details: Homo sapiens; NCI-H23, Non-Small Cell Lung Cancer
Experimental: as §2, §3, §4, §5

[9] = test system: OVCAR-4; assay: NCI In Vitro Cell Line Screening; format: cell-based; details: Homo sapiens; OVCAR-4, Ovarian Carcinoma
Experimental: as §2, §3, §4, §5

[10] = test system: HCC-2998; assay: NCI In Vitro Cell Line Screening; format: cell-based; details: Homo sapiens; HCC-2998, Colon Cancer
Experimental: as §2, §3, §4, §5

[11] = test system: NCI-H460; assay: NCI In Vitro Cell Line Screening; format: cell-based; details: Homo sapiens; NCI-H460, Non-Small Cell Lung Cancer
Experimental: as §2, §3, §4, §5

[12] = test system: LOX IMVI; assay: NCI In Vitro Cell Line Screening; format: cell-based; details: Homo sapiens, Melanoma
Experimental: as §2, §3, §4, §5

[13] = cited from earlier work
[14] = in vivo; cited from earlier work; remark: listed apart in the source
[15] = test system: Chronic lymphocytic leukemia cells (CLL); assay: Flow cytometry (propidium iodide, DiOC6) of CLL cells after 24 hours exposure; format: cell-based, human; details: 10 μM, FIG. 2
Experimental: After 24 hours exposure, the percentage of living (lower-right corner), apoptotic (lower-left corner) and dead (higher-left corner) were analyzed by flow cytometry using propidium iodide (y axis) and DiOC6 (x axis). The results, showing the activity of the (+) and (−) enantiomers against CLL cells, are seen in FIG. 2.

[16] = test system: peripheral blood T lymphocytes; details: Meng et al. 1997; cited from earlier work
[17] = test system: CLL cells; details: Lagneaux et al. 2001; not feasible in vivo due to toxicity; cited from earlier work
[18] = test system: 10C9; assay: MTT assay, cell viability; format: cell-based; details: 10C9, Lymphoma, 72 hours exposure
Experimental: (§6) After 72 hours exposure, the viability of the cells was determined by the rate of conversion of the formazan salt measuring the optical density (OD) at 570 nm (MTT assay).

[19] = test system: RPMI8226; assay: MTT assay, cell viability; format: cell-based; details: RPMI8226, Myeloma, 72 hours exposure
Experimental: as §6

[20] = test system: SU-DHL1; assay: MTT assay, cell viability; format: cell-based; details: SU-DHL1, Lymphoma, 72 hours exposure
Experimental: as §6

[21] = test system: U266; assay: MTT assay, cell viability; format: cell-based; details: U266, Myeloma, 72 hours exposure
Experimental: as §6

[22] = test system: MCF7; assay: MTT assay, cell viability; format: cell-based; details: MCF7, Breast, 72 hours exposure
Experimental: as §6

[23] = test system: SU-DHL9; assay: MTT assay, cell viability; format: cell-based; details: SU-DHL9, Lymphoma, 72 hours exposure
Experimental: as §6

[24] = test system: HCT-116; assay: MTT assay, cell viability; format: cell-based; details: HCT-116, Colon, 72 hours exposure
Experimental: as §6

[25] = test system: RAJI; assay: MTT assay, cell viability; format: cell-based; details: Lymphoma, 72 hours exposure
Experimental: as §6

[26] = test system: MDA-231; assay: MTT assay, cell viability; format: cell-based; details: MDA-231, Breast, 72 hours exposure
Experimental: as §6

[27] = test system: LNCap; assay: MTT assay, cell viability; format: cell-based; details: Prostate, 72 hours exposure
Experimental: as §6

[28] = cited from earlier work; remark: listed apart in the source

Compound: O[C@H](c1cc(C(F)(F)F)nc2c(C(F)(F)F)cccc12)[C@@H]1CCCCN1 (relative stereo) [Mefloquine, (R*,S*)-(±)-alpha-2-piperidinyl-2,8-bis(trifluoromethyl)-4-quinolinemethanol]
- apoptosis induction in CLL cells ([1]; 10 μM, 48 hours exposure): inducing potent apoptosis
- apoptosis induction in normal lymphocytes [2]: not against normal lymphocytes

Compound: O[C@H](c1cc(C(F)(F)F)nc2c(C(F)(F)F)cccc12)[C@@H]1CCCCN1 (racemic) [Mefloquine, (R*,S*)-(±)-alpha-2-piperidinyl-2,8-bis(trifluoromethyl)-4-quinolinemethanol]
- concentration effective against CLL cells [1]: ≤ 10 µM
- CC50 ([3]; Homo sapiens, 48 h, read-out: Mean LC50): 87 µM
- GI50 ([3]; Homo sapiens, mean over 60 tumor cell lines, 48 h, SRB): 4 µM
- Mean TGI50 ([3]; mean over 60 tumor cell lines, 48 h, SRB): 26 µM
- number of the 60 cell lines against which active ([3]; of the 60 cell lines in the screen): 58
- bioavailability [4]: 80%
- GI50 [5]: 0.1 µM
- GI50 [6]: 2 µM
- GI50 [7]: 1.7 µM
- GI50 [8]: 2.8 µM
- GI50 [9]: 1.9 µM
- GI50 [10]: 2 µM
- GI50 [11]: 2.1 µM
- GI50 [12]: 1.3 µM

Compound: OC(c1cc(C(F)(F)F)nc2c(C(F)(F)F)cccc12)C1CCCCN1 (centres unmarked) [Mefloquine hydrochloride]
- solubility in ethanol ([13]; ethanol): soluble
- solubility in water ([13]; water): slightly soluble

Compound: O[C@H](c1cc(C(F)(F)F)nc2c(C(F)(F)F)cccc12)[C@@H]1CCCCN1 [(+)-mefloquine]
- passage of the blood brain barrier / accumulation in the brain [14]: accumulate in the brain
- activity against CLL cells [15]: activity

Compound: CCN(CCO)CCCC(C)Nc1ccnc2cc(Cl)ccc12 (centres unmarked) [hydroxychloroquine]
- apoptosis induction in peripheral blood T lymphocytes [16]: induce apoptosis
- concentration active against CLL cells [17]: ≥ 30 µg/mL

Compound: OC(c1cc(C(F)(F)F)nc2c(C(F)(F)F)cccc12)C1CCCCN1 (single isomer, unassigned; (-)) [(−)Mefloquine]
- IC50 [18]: 20 µM
- IC50 [19]: 15 µM
- IC50 [20]: 20 µM
- IC50 [21]: 25 µM
- IC50 [22]: 20 µM
- IC50 [23]: 15 µM
- IC50 [24]: 12 µM
- IC50 [25]: 30 µM
- IC50 [26]: 40 µM
- IC50 [27]: 25 µM
- passage of the blood brain barrier / accumulation in the brain [14]: does not seem to pass the blood brain barrier
- activity against CLL cells [15]: activity

Compound: 2,8-bis-trifluorornethyl-4-quinoline carboxylic acid [Metabolite]
- level accumulated in the plasma ([28]; plasma): up to 10 μM
- Mean (SD) trough concentration, Plasma ([28]; plasma, ten healthy volunteers, 250 mg once weekly for 16 weeks, steady state at week 16): 9.80 (5.07) μmol · 1^−1
- Mean (SD) trough concentration, Serum ([28]; serum, ten healthy volunteers, 250 mg once weekly for 16 weeks, steady state at week 16): 9.44 (5.00) μmol · 1^−1
- Mean (SD) trough concentration, Whole Blood ([28]; whole blood, ten healthy volunteers, 250 mg once weekly for 16 weeks, steady state at week 16): 4.89 (2.58) μmol · 1^−1
